Test results published in patent publication US20250034194A1, “INHIBITORS OF ABNORMAL PHOSPHORYLATION AND TAU PROTEIN AGGREGATION” (UNIVERSITE DE PICARDIE JULES VERNE, priority 2021, published 2025).

Key:
Type in all cases: cell-based
[1] = tested on: tau phosphorylation (S262 site) in cortical cells of rTg4510 mice (human tau P301L); assay: In cellulo tau phosphorylation test in cortical cells of rTg4510 mice; details: 24 h
Excerpt: Cortical cells from rTg4510 mice mutated for human tau protein (P301 L) were used as a model of primary cells expressing a tauopathy without induction by an effector, unlike the previous cellular model (Santa Cruz et al., Science, 2005).
Cortical cells are extracted from mouse embryos expressing the P301L mutation at stage E16 and cultured in a 6-well plate. On day 14 (moderate tau phosphorylation) or day 18 (severe tau phosphorylation), cells extracted from the same embryo are placed in the presence of the Mal16diS molecule at different concentrations (0.1 or 1 μg/mL), in a final volume of 2 mL simultaneously with a well of cells from the same embryo not receiving molecules for 24 h. After 24 h of treatment with the molecules, the cells are rinsed with 1×PBS then lysed and recovered in RIPA buffer (Thermo Fischer). The protein extracts from the cells (10 μg) are then analysed by western blot according to the same procedure described above.
The tau phosphorylation site studied here is the S262 site (Thermo Fisher), normalized to the expression of total tau protein (K9JA, Dako). The bands are quantified using the Odyssey software of the LI-COR device allowing the p-tau/tau ratio to be calculated for each of the conditions. The ratio obtained for each concentration of molecule is then expressed as a percentage of the ratio obtained for cells not treated by the molecules. Thus a value less than 100% corresponds to protection provided by the molecules in this cellular model of expression of tau phosphorylation. The experiment was repeated at least three times for each dose of “Mal16diS” molecule. The mean and standard deviation of the replicates are shown in FIGS. 17 and 18; each of the values obtained for each dose is compared to that of the cells without addition of the molecule, with a t-test. Statistical differences with p-value <0.01 and <0.001 are represented by “**” and “***” respectively.

[2] = tested on: tau phosphorylation (S262 site) in SH-SY5Y cells; assay: In cellulo tau phosphorylation test in the SH-SY5Y line (H2O2 stress induction); details: 24 hours, then H2O2
Procedure: The tau phosphorylation induction model on the SH-SY5Y cell line described in the Gly-CRRET laboratory article was used here (Sepulveda-Diaz et al., 2015).
In short, SH-SY5Y cells are seeded in 6-well plates and differentiated using retinoic acid (10 μM, Sigma Aldrich) for 5 days. On day 6, the cells are placed in the presence of the Mal16diS and Mal18diS molecules at different concentrations (1, 10 or 100 μg/mL), in a final volume of 2 mL simultaneously with a well not receiving molecules. After 24 hours, the molecules are removed and the stress inducer (H2O2, Sigma Aldrich) is added to the cell medium for 30 minutes. The cells are then rinsed with 1×PBS then lysed and recovered in RIPA buffer (Thermo Fisher). The protein extracts from the cells (10 μg) are then analysed by western blot according to the same procedure described above.
The tau phosphorylation site studied here is the S262 site (Thermo Fisher), normalized to the expression of the GAPDH protein (Sigma Aldrich). The bands are quantified using the Odyssey software of the LI-COR device allowing the p-tau/GAPDH ratio to be calculated for each of the conditions. The ratio obtained for each concentration of molecule is then expressed as a percentage of the ratio obtained for the control cells, i.e., not treated by the molecules. Thus a value less than 100% corresponds to protection provided by the molecules in this cellular model of tau phosphorylation induction.
The experiment was repeated at least 4 times for each molecule dose for the “Mal16diS” and “Mal18diS” molecules and at least twice for the “Cell16diS” and “Lac16diS” molecules. The mean and standard deviation of the replicates are shown in FIGS. 13 to 16; each of the values obtained for each dose is compared to that of the control without addition of molecule by means of a t-test. Statistical differences with p-value <0.05 and <0.001 are represented by “*” and “***” respectively.

SH-SY5Y = assay: Cytotoxicity study, MTT test; details: differentiated SH-SY5Y; 0.1 to 100 μg/mL; 24 hours
Procedure: In order to evaluate the level of toxicity of these molecules according to their concentration in the cellular environment, an MTT test (3-(4,5-dimethylthiazol-2-yl)-2,5-diphenyl tetrazolium bromide) is carried out (FIGS. 11 and 12) upstream of the phosphorylation tests in cellulo.
SH-SY5Y (ATCC-CRL-2266) are developed in Dulbecco's Modified Eagle Complete Medium (DMEM-GlutaMAX™, Life Technologies) with 10% foetal bovine serum (FBS) and 1% penicillin/streptomycin in an incubator at 37° C. with 5% CO2.
For this, the SH-SY5Y cells are cultured in a 6-well plate at a cell density of 200,000 cells/well and are differentiated using retinoic acid (10 μM, Sigma Aldrich) for 5 days. On day 6, the cells are brought into contact with LG2A molecules at different concentrations (0.1, 1, 10 or 100 μg/mL), in a final volume of 2 mL. After 24 hours, MTT (5 μg/mL; Sigma-Aldrich) is added to the cell medium for 2 hours at 37° C. Then the medium is removed and 200 μL of pure dimethylsulfoxide (DMSO, Sigma-Aldrich) are added to each well. The entire contents of each well are transferred to a 96-well plate and the absorbance is measured at 562 nm using the Infinite M1000 spectrofluorometer (Tecan).

CCCCCCCCCCCCCCCCNC(=O)[C@H](O)[C@@H](O)[C@H](O[C@H]1OC(COS(=O)(=O)[O-])[C@@H](O)C(O)[C@@H]1O)[C@H](O)COS(=O)(=O)[O-].[Na+].[Na+] (stereo partly drawn) [Mal16diS, N-Hexadecyl-6,6′-Di-O-Sulfo-D-Maltobioamide Disodium]
reduction in tau phosphorylation (S262, p-tau/tau) compared to untreated cells ([1]; moderate phosphorylation (D14), 0.1 μg/mL): 48%
reduction in tau phosphorylation (S262, p-tau/tau) compared to untreated cells ([1]; moderate phosphorylation (D14), 1 μg/mL): 64%
reduction in tau phosphorylation (S262, p-tau/tau) compared to untreated cells ([1]; severe phosphorylation (D18), 0.1 μg/mL): 39%
reduction in tau phosphorylation (S262, p-tau/tau) compared to untreated cells ([1]; severe phosphorylation (D18), 1 μg/mL): 53%
reduction in tau phosphorylation (S262, p-tau/GAPDH) compared to untreated cells ([2]; 1 μg/mL): 30%
reduction in tau phosphorylation (S262, p-tau/GAPDH) compared to untreated cells ([2]; 10 μg/mL): 40%
cytotoxicity (MTT) (SH-SY5Y): not cytotoxic
